The target in the first assay is Matrix metalloproteinase-9 (Mus musculus) (UniProt P41245). The experiment in a line: Inhibitory activity against murine gelatinase B at 5 mM was determined.
Sequence of Matrix metalloproteinase-9 (Mus musculus) (P41245 whole entry): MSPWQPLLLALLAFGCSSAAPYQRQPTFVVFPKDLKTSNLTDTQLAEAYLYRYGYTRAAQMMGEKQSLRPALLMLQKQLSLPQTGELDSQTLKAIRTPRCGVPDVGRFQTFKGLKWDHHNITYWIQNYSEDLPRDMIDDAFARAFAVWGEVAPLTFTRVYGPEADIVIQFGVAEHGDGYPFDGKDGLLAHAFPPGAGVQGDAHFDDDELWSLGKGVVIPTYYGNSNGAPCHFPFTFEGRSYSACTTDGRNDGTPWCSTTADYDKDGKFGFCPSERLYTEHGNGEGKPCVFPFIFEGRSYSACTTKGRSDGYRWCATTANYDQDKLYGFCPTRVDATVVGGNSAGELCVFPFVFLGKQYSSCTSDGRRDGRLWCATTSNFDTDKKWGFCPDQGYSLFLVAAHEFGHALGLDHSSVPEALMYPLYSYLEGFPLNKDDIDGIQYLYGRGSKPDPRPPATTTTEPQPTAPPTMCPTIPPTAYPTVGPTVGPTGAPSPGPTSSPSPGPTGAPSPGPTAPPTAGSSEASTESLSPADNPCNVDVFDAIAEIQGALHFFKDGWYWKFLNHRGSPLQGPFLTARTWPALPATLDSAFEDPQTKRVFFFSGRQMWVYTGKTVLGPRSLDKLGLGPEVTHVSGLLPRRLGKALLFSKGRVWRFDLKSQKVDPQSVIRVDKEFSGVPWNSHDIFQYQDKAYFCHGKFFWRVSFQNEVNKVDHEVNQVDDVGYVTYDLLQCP
`Nc1ccccc1N` registered an inhibition of 10%.
On the same count and under the same terms, to `CCNCCN` belongs less than 5%; to `O=C(O)c1ccccc1`, less than 5%.
Still for that read-out and setting: to `CC(=O)NO` belongs less than 5%; to `NCc1ccccn1`, 75%.
The same measure, in the same setting: the same measure for `NCCNCCN`: less than 5%; for `CC(=O)Nc1nc(C)cs1`: less than 5%; for `OCc1nc2ccccc2s1`: 85%.
`NCc1nc2ccccc2[nH]1` showed an inhibition of 65%.
Turning to `Oc1ccccn1`, the inhibition was less than 5%.
With `OCc1nc2ccccc2[nH]1`, the inhibition is 26%.
On the same count and under the same terms, to `CC(=O)C1CCCC1=O` (centres undefined) belongs 76%; to `NCCc1ccccn1`, less than 5%.
Still for that read-out and setting: to `NCCN` belongs less than 5%.

In a further assay the target is Matrix metalloproteinase-9 (Mus musculus, UniProt P41245). The experiment in a line: Inhibitory concentration was determined against murine gelatinase B.
Sequence of Matrix metalloproteinase-9 (P41245 whole entry): as above
For `NCc1nc2cc(NC(=O)/C=C/c3c(F)cccc3F)ccc2[nH]1`, the IC50 is 75 µM.
On the same count and under the same terms, to `NCc1nc2cc(NC(=O)/C=C/c3cccnc3)ccc2[nH]1` belongs 85 µM; to `NCc1nc2cc(N)ccc2[nH]1`, greater than 500 µM; to `OCc1nc2cc(NCc3ccccc3OCc3ccccc3)ccc2[nH]1`, greater than 100 µM.
For `NCc1nc2ccc(NCc3ccccc3Sc3ccccc3)cc2[nH]1`, the concentration for half-maximal inhibition (IC50) came out at 56 µM.
On the same count and under the same terms, the same measure for `CC(=O)NCc1nc2ccc(NCc3ccccc3OCc3ccccc3)cc2[nH]1`: greater than 100 µM; for `NCc1nc2ccc(NCc3ccc(OCc4ccccc4)cc3)cc2[nH]1`: 51 µM.
Still for that read-out and setting: the same measure for `NCc1nc2ccc(NCc3ccccc3)cc2[nH]1`: 195 µM; for `NCc1cc2cc(NCc3ccccc3OCc3ccccc3)ccc2[nH]1`: 72 µM.
On the same count and under the same terms, the same measure for `NCc1nc2ccc(NC(=O)c3ccccc3OCc3ccccc3)cc2[nH]1`: 48 µM; for `Cc1nc2cc(NCc3ccccc3OCc3ccccc3)ccc2[nH]1`: greater than 300 µM.
`CC(=O)N(Cc1ccccc1OCc1ccccc1)c1ccc2nc(CN)[nH]c2c1`: half-maximal inhibition (IC50) was put at 83 µM.
The compound `NCc1nc2ccc(NCc3ccccc3OCc3ccccc3)cc2[nH]1` showed an IC50 of 13 µM.
Still for that read-out and setting: the same measure for `NCc1nc2ccc(NCC3CC=CCC3)cc2[nH]1` (centres undefined): 92 µM.
`NCc1nc2ccc(NC(=O)c3ccc(C(=O)c4ccccc4)cc3)cc2[nH]1` gave an IC50 of 46 µM.

The values above are taken from ChEMBL document CHEMBL1134870, “Design and synthesis of novel inhibitors of gelatinase B” (Bioorg Med Chem Lett, 2002).
